The assay concerns PC9-ER cells. Kind of assay: Cell viability (MTT) of Erlotinib-resistant cells. To be noted: Homo sapiens, PC-9/ER, 72 h, read-out: Inhibition of PC9-ER cell proliferation, Erlotinib alone.

As for `C#Cc1cccc(Nc2ncnc3cc(OCCOC)c(OCCOC)cc23)c1` [Erlotinib], the inhibition at 0.1 µM stood at 8%.

These data come from article PMC8890653, “Cell-penetrating peptides containing the progesterone receptor polyproline domain inhibits EGF signaling and cell proliferation in lung cancer cells” (PLoS ONE, 2022).
